This is an account of results in PMC8305076, “Comprehensive Evaluation of Biological Effects of Pentathiepins on Various Human Cancer Cell Lines and Insights into Their Mode of Action” (International Journal of Molecular Sciences, 2021).

For data set [1], the system named is HAP-1, HAP-1.KO.GPx1, A2780, and Siso. Also on record: method as in PMID 32311219; key: no impact (0); weak impact (+); strong impact (++). As to conditions: summary grade; first generation compound; cited from earlier work.
The subject of data set [2] is panel of 14 human cancer cell lines. Also on record: method as in PMID 32311219; key: no impact (0); weak impact (+); strong impact (++). As to conditions: summary grade; first generation compound; cited from earlier work.
Data set [3] deals with pBR322 plasmid DNA. Also on record: method as in PMID 32311219; key: no impact (0); weak impact (+); strong impact (++). As to conditions: summary grade; first generation compound; cited from earlier work.
Data set [4] addresses T1, bovine erythrocyte GPx1 (Bos taurus, UniProt P00435).
T1 construct: the isolated enzyme from bovine erythrocytes; purchased Sigma-Aldrich (Taufkirchen, Germany); host or cells: isolated from bovine erythrocytes
T1 sequence (P00435 1-205): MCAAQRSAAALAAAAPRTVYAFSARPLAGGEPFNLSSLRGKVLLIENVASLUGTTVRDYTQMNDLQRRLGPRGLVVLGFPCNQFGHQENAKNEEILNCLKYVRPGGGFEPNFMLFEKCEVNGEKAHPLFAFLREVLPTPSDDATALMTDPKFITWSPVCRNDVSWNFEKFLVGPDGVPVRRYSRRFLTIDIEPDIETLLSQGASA
Set-up: method as in PMID 32311219; key to GPx1 inhibition: no impact (0); weak impact (+); strong impact (++). As to conditions: cited from earlier work.

Data set [5] has as its system HAP-1, HAP-1.KO.GPx1, A2780 and Siso. Set-up: method as in PMID 32311219; key: no impact (0); weak impact (+); strong impact (++). As to conditions: summary grade; first generation compound; cited from earlier work.
For data set [6], the system named is seven cancer cell lines. Set-up: method as in PMID 32311219; key: no impact (0); weak impact (+); strong impact (++). As to conditions: summary grade; first generation compound; cited from earlier work.
The subject of data set [7] is HAP-1, HAP-1.KO.GPx1, and Siso. Also on record: method as in PMID 32311219; key: no impact (0); weak impact (+); strong impact (++). As to conditions: summary grade; first generation compound; cited from earlier work.
Data set [8] relates to HAP-1, HAP-1.KO.GPx1, Siso and A2780 cells. Set-up: method as in PMID 32311219; key: no impact (0); weak impact (+); strong impact (++). As to conditions: summary grade; first generation compound; cited from earlier work.
In data set [9] the test system is GR/CAT. Also on record: method as in PMID 32311219; key: no impact (0); weak impact (+); strong impact (++). As to conditions: summary grade; first generation compound; cited from earlier work.
Data set [10] relates to panel of 14 human cancer cell lines. Also on record: method as in PMID 32311219; key: no impact (0); weak impact (+); strong impact (++). As to conditions: summary grade; first generation compound; cited from earlier work. The source holds these as a separate data set.
Data set [11] has as its system HAP-1.KO.GPx1. Briefly: alkaline Comet assay. The data set is classed as cell-based, human. As to conditions: 25 µM pentathiepin or 20 µM H2O2, 15 min, 0 °C. The text has this: (§1) Next, the potential of the pentathiepins 1–6 to damage nuclear DNA was investigated in the cell lines HAP-1, HAP-1.KO.GPx1, and Siso, with different expression levels of GPx1 and CAT (see Figure 7), by Comet Assay (Figure 12) with representative images in the Supplementary Materials (Figure S48).
(§2) With this assay, the intensity of DNA damage can be assessed on the level of a single cell, in case of the alkaline version detecting both single and double strand breaks as well as alkali-labile sites. The method presented here is an adaptation of the protocol published by Olive and Banath and based on the distinct electrophoretic mobility of damaged and intact genomic DNA. The latter has a low mobility; does thus not migrate in the electric field; and remains in a nucleoid shape after lysis, referred to as the comet head. In contrast, when strand breaks are created, free charged ends emerge and increase the electrophoretic mobility, prompting DNA segments to drift away from the comet head, thereby forming the so-called comet tail. As descriptor of still intact genomic DNA, the percentage of DNA in the comet head was selected. Per condition, 50,000 cells of either Siso, HAP-1, or HAP-1.KO.GPx1 were diluted in 1 mL of PBS and subsequently treated with either a 1% DMF aqueous solution as negative control, 20 µM of H2O2 as positive control, or 25 µM of pentathiepin for 15 min on ice to impair intracellular DNA repair mechanisms. Afterwards, 400 µL of the cell suspension was blended with 1.2 mL of a 1% low melting point agarose solution (40 °C) and smoothly distributed on agarose-precoated glass slides. Polymerization was finished after 3 min at RT, and the slides were horizontally submerged in alkaline lysis buffer (1.2 M NaCl, 0.1% N-lauryl-sarcosinate, 0.1 M Na-EDTA, 0.26 M NaOH) before storing them at 4 °C overnight. The slides were then rinsed three times in rinse/electrophoresis buffer (0.002 M Na-EDTA, 0.03 M NaOH) before electrophoretic separation was performed for 25 min at 0.6 V/cm. A neutralization step by adding distilled water was followed by staining the slides with 250 µL of an aqueous 10 µg/mL PI solution for 20 min. For visualization and image capturing, a DMi8 fluorescent microscope and LASX software (Leica Microsystems, Wetzlar, Germany) were used, and the comets scored with the help of CometScore2.0 (rexhoover.com). Per condition and replicate, at least 100 comets were analyzed to calculate a mean level of damage.

Data set [12] deals with Siso. Description: alkaline Comet assay. The data set is classed as cell-based, human. As to conditions: 25 µM pentathiepin or 20 µM H2O2, 15 min, 0 °C.
Text: as §1, §2

Data set [13] concerns HAP-1. Description: alkaline Comet assay. The data set is classed as cell-based, human. As to conditions: 25 µM pentathiepin or 20 µM H2O2, 15 min, 0 °C.
Text: as §1, §2

Data set [14] has as its system caspase-3 and -7 in A2780. Description: luminescent caspase activity assay. As to conditions: pentathiepins IC90, doxorubicin 0.5 µM, 24 h. The data set is classed as cell-based, human. From the text: (§3) To further corroborate this mode of cell death, we performed a luminescent caspase assay by measuring caspase-3 (cas-3) and caspase-7 (cas-7) activities (Figure 16). Both are executioner caspases that are present as zymogens (35 kDa) and become active after being cleaved (fragment sizes 17 and 19 kDa) by initiator caspases. Activated cas-3 and -7 in turn have several other substrates, including PARP1. In this assay, a precursor with a caspase-specific target sequence was converted into its luminescent form by active caspase-3 or -7, thereby emitting light that can be quantified.
(§4) To study the activation of the effector caspases -3 and -7, we performed a luminescence-based assay according to the manufacturer’s instructions (Caspase-Glo, Promega, Walldorf, Germany). Briefly, 5000 cells were seeded in 0.1 mL per well of a 96-well plate and allowed to adhere overnight. […] Afterwards, the standard protocol was followed, including a 30 min incubation time before measurement of luminescent signals by using the Spectramax i3x (Molecular Devices, Sunnyvale, CA, USA). After subtraction of the background luminescence the positive control and treatment conditions were related to the negative control.

Data set [15] has as its system caspase-3 and -7 in HAP-1. Description: luminescent caspase activity assay. Format: cell-based, human. As to conditions: pentathiepins IC90, doxorubicin 0.5 µM, 24 h.
Text: as §3, §4

The test system of data set [16] is caspase-3 and -7 in Siso. Description: luminescent caspase activity assay. The data set is classed as cell-based, human. As to conditions: pentathiepins IC90, doxorubicin 0.5 µM, 24 h.
Text: as §3, §4

In data set [17] the test system is caspase-3 and -7 in HAP-1.KO.GPx1. Description: luminescent caspase activity assay. Format: cell-based, human. As to conditions: pentathiepins IC90, doxorubicin 0.5 µM, 24 h.
Text: as §3, §4

In data set [18] the test system is PARP1 in HAP-1.KO.GPx1. Description: Western blot of cleaved PARP1. Format: cell-based, human. As to conditions: pentathiepins IC90, doxorubicin 0.5 µM, 24 h. On the procedure:
(§5) In addition to general flow cytometric and microscopic analyses, Western blotting was performed to detect the apoptosis-relevant protein PARP1 (poly(ADP-ribose) polymerase 1) and its cleavage fragment (Figure 17 and Figures S29–S34). Full-length PARP1 (116 kDa) is involved in DNA repair, and a cleavage by caspases (fragment sizes 24 and 89 kDa) caused by caspase-3 and -7 is a hallmark of late apoptosis.
(§6) All detected specific bands were normalized to the total protein load per lane by the TGX stain-free gel system from Bio-Rad.
(§7) All Western blot analyses were performed with reagents, material, and devices purchased from Bio-Rad (Feldkirchen, Germany) if not stated otherwise. To obtain protein lysates, we seeded cells and treated them as described for the other methods. […] Cells were harvested by trypsinization and centrifugation for 5 min at 500× g. After a washing step with PBS, the cell pellet was resuspended in lysis buffer (Tris 50 mM (pH 7.4), 100 mM NaCl, 100 mM NaF, 5 mM EDTA, 0.2 mM Na3VO4, 0.1% Triton-X, and 1% protease inhibitor cocktail added immediately before use). Lysis was supported by incubating the samples for 10 min in an ultrasonic bath before centrifuging for 10 min at 18,000 × g and 4 °C. Protein quantification was performed via the Bradford method using ROTI®nanoquant reagent (Carl Roth GmbH, Karlsruhe, Germany) and bovine serum albumin as calibration standard. For electrophoretic separation, 15–40 µg of protein was loaded per well of a polyacrylamide gel (Mini- or Midi-Protean® TGX stain-free gel, Bio-Rad, Feldkirchen, Germany), and subsequent blotting was performed with Trans-Blot®Turbo™TransferPack Mini or Midi PVDF membranes from Bio-Rad (Feldkirchen, Germany). The membranes were blocked with a 10% non-fat milk powder solution in Tris-buffered saline (TBS; 2.42 g/L Tris, 8.48 g/L NaCl in water) plus 0.5% Tween-20 (TBST) for 1 h at RT. Incubation with primary antibodies took place over night at 4 °C in a 1:1000 dilution in TBST containing BSA (1%). The secondary antibodies conjugated to horse-radish peroxidase were diluted 1:10,000 in TBST and 1% BSA, and incubated for 4 h at RT. A detection step followed, applying Clarity™Western ECL substrate with subsequent imaging via the INTAS Advanced Fluorescence Imager. Between all incubation steps, the blots were washed three times for 10 min with TBST. The bands were quantified with the ImageLab software and normalized using the total protein quantification of the TGX stain-free gel system from Bio-Rad.

In data set [19] the test system is PARP1 in HAP-1. Description: Western blot of cleaved PARP1. The data set is classed as cell-based, human. As to conditions: pentathiepins IC90, doxorubicin 0.5 µM, 24 h. On the procedure: as §5, §6, §7
(In general: Immunoblotting shows a protein as a band on a membrane.)

The test system of data set [20] is HAP-1.KO.GPx1. Description: annexin V-FITC/PI apoptosis assay. The data set is classed as cell-based, human. As to conditions: pentathiepins IC90, doxorubicin 0.5 µM, 24 h. On the procedure: As reported in our earlier publication, a representative pentathiepin was capable of inducing apoptosis in cancer cell lines. Here, we tested compounds 1–6 for their ability to trigger this particular modality of cell death in a subset of four cell lines: HAP-1, HAP-1.KO.GPx1, A2780, and Siso. A flow cytometric assay was performed, allowing us to discriminate between viable, early, and late apoptotic cells (representative dot plots can be found in Figure S47). FITC-labeled annexin V was used to assess the externalization of phosphatidyl serine as a hallmark of early apoptosis induction. The addition of propidium iodide (PI) enabled the detection of late apoptotic cells as it only permeates porous cell membranes and exerts fluorescence once bound to double-stranded DNA.
The annexin V-FITC/PI assay, which discriminates between viable, early, and late apoptotic cells within a sample population, was performed according to the manufacturer’s instructions (Miltenyi Biotec, Teterow, Germany). Briefly, 125,000 cells were seeded in 2 mL per well of a 6-well plate, allowed to adhere overnight, and subsequently treated with the respective pentathiepin (IC90, see Table S4) diluted in 3 mL of medium. After incubation periods of 6, 24, or 48 h, the cells were harvested, washed with the provided binding buffer, and stained with the annexin V-FITC reagent for 20 min at room temperature (RT) in the dark. After another washing step, the pellet was resuspended, and PI was added immediately before flow cytometric measurement at λEx/Em = 488/525 ± 50 nm for FITC and λEx/Em = 488/655–730 nm for PI with the MACSquant Analyzer 10 (Miltenyi Biotec, Teterow, Germany).

For `CCOc1c2c(c3cnc4cc(C)c(C)cc4n13)SSSSS2` [(c)], in data set [1], the Apoptosis result is “+”. For the same molecule, the Antiproliferative effect entry in data set [2] is given as “+”. In addition, in data set [3], the DNA cleavage result is given as “+”. Further, the GPx1 inhibition result in data set [4] (summary grade, first generation compound) is recorded as “+”. Besides, the Ferroptosis in data set [5] is 0. Besides, the ROS induction result in data set [6] is “+”. Besides, the Comet formation entry in data set [7] is reported as “+”. The Morphological changes result in data set [8] was “+”. Moreover, the GR/CAT inhibition in [9] is 0. The Cytotoxicity entry in data set [10] was “+”.

Regarding `OO` [Compound H2O2, hydrogen peroxide], the “intact genomic DNA (Comet head)” value in [11] was 5%; in data set [12] it was “about 10%”; in data set [13], 63%.

For `COc1cccc2c1C(=O)c1c(O)c3c(c(O)c1C2=O)C[C@@](O)(C(=O)CO)C[C@@H]3O[C@H]1C[C@H](N)[C@H](O)[C@H](C)O1` [doxorubicin, reference compound], the “caspase-3 and -7 activity vs solvent control” value in [14] is “activation of the caspase-3 and -7 was confirmed”; in data set [15], “activation of the caspase-3 and -7 was confirmed”; in data set [16], “activation of the caspase-3 and -7 was confirmed”; in data set [17] it was “activation of the caspase-3 and -7 was confirmed”. The “cleaved PARP1” value in data set [18] and in data set [19] was “detected to statistically significant extents” throughout. Further, the early apoptotic cells entry in data set [20] is recorded as “about 50%”.

The IC50 is the concentration that inhibits the measured activity by half. For `O=C(O)CC(S)C(=O)O` (stereo not drawn) [mercaptosuccinic acid], the IC50 in data set [4] (GPx1 inhibition) is 5.9 µM.
